Legend:
[1] = solubility in water; type: physicochemical
Procedure: The all-trans isomer of retinyliden tauret (i.e., all-trans-3,7-dimethyl-9-(2,6,6-trimehyl-1-cyclohexen-1-yl)-2,4,6,8-nonatetraen-1-imido-(N-sulfonic acid) prepared in this example has the following characterization: a) Absorbency Max […]., b) Extinction Coefficient at […] is 40200, c) upon protonation the absorbency Max shifts to 444 um, d) the Extinction Coefficient at 444 um is 40050 e) Melting Point is 115 C., -116° C. and soluability in water is 200 mg/ml.

[2] = tested on: frog retinas; conditions: in vitro; cited from earlier work

SMILES | soluability in water [1] [mg/mL] | photoprotective effects [2]
CC1=C(/C=C/C(C)=C/C=C/C(C)=C/C=NCCS(=O)(=O)O)C(C)(C)CCC1 (single isomer, unassigned) [all-trans isomer of retinyliden tauret, all-trans-3,7-dimethyl-9-(2,6,6-trimehyl-1-cyclohexen-1-yl)-2,4,6,8-nonatetraen-1-imido-(N-ethanesulfonic acid)] | 200 | –
CC(C=CC1=C(C)CCCC1(C)C)=CC=CC(C)=CC=NCCS(=O)(=O)O [retinyliden tauret, 3,7-dimethyl-9-(2,6,6-trimehyl-1-cyclohexen-1-yl)-2,4,6,8-nonatetraen-1-imido-(N-ethanesulfonic acid)] | – | some photoprotective effects
